Reference: patent publication US20080081039A1, “Inorganic Selenium For Treatment Of Cancer” (priority 2004, published 2008)
Read-outs that look alike come from different tables or passages of the source.

Experiments:
PC-3 cells [1] = conditions: 5 weeks, vs controls
Method: Animal experimentation involved the use of BALB/c nude mice. On day one of the experiment 6 week old BALB/c nude mice were anaesthetized with an intraperitoneal injection of ketamine 100 mg/kg and xylazine 20 mg/kg. Under magnification 1×10^6 PC-3 cells with viability greater than 95%, were injected into the dorsolateral prostate, essentially as described in Corcoran, N. M., Najdovska, M., and Costello, A. J. (2004), J. Urol., 171:907-910.
On day 3 of the experiment all mice were switched to the D19101 minimal selenium diet with an assayed selenium content of 0.07 ppm (Research Diets Inc., New Brunswick, N.J., USA). […] After 5 weeks of supplementation mice were culled and tumor-containing prostate glands were then weighed and measured with a Vernier calliper. The retroperitonium was then explored under magnification cephadally to the level of the renal veins and lymph nodes measuring greater than 0.5 mm identified.
The degree of apoptosis in tissue samples was determined using an in situ TUNEL Cell Death Detection Kit (Roche Applied Science) according to the manufacture's instructions. The number of brown staining cells at high power (×400) were counted in 10 randomly chosen fields in areas where necrosis was absent on H&E staining of adjacent sections.
The rate of tumor cell proliferation was determined by in vivo BrdU incorporation. Two hours prior to culling, the mice were injected with 50 mg/kg BrdU (Sigma) intraperitoneally. 5 μm sections were cut, fixed in absolute methanol at 4° C. for 10 minutes. Sections were rehydrated in PBS and incubated in 2 N HCl for 1 hour at 37° C. to denature the DNA. The acid was neutralized by immersing the slides in 0.1 M borate buffer (pH 8.5). Following 3×PBS washes the samples were incubated with a monoclonal antibody to bromodeoxyuridine (BrdU) (Roche Applied Science) at a concentration of 5 μg/mL diluted in 0.1% BSA in PBS for 1 hour at room temperature, then overnight at 4° C. Samples were washed 3× times in PBS and incubated for 1 hour with a biotinylated link immunoglobulin mixture (DAKO Corporation). […] 10 fields at high power (×400) were chosen at random and the number of brown staining cells counted.

PC-3 cells [2] = conditions: 24-72 hours
Method: Analysis of PC-3 growth curves were achieved by allowing 2×10^5 PC-3 cells to attach overnight. […] Supernatants and cells were then harvested, combined and viable cells assessed by Trypan Blue exclusion assay. Experiments were performed in triplicate.

PC-3 cells [3] = assay: MTT growth assay; format: cell-based, human
Method: MTT Growth Assays involved plating 1×10^3 PC-3 cells per well in a 96 well plate and allowing the cells to attach overnight. […] The controls for this experiment received an equal volume of LY294002 diluent (DMSO). MTT growth assays were then performed according to the manufacturer's protocol (Sigma).

[4] = system: cell cycle regulatory proteins (cyclin D1, cdk4, cdk6, p27KIP1, p21CIP1); assay: Immunoblot of cell cycle regulatory proteins in PC-3 cells; format: cell-based, human
From the text: The following antibodies were obtained from Cell Signaling Technology (Beverly, Mass., USA) unless otherwise stated: anti-p27^KIP1 (bd Pharmingen), anti-p21^CIP1 , ANTI-CYCLIN d1, ANTI-CYCLIN d3, ANTI-CDK4, ANTI-CDK6, ANTI-PHOSPHO rb (Ser807/811), anti-RB, anti-phospho Akt (Ser473), anti-phospho Akt (Thre308), anti-Akt, anti-phospho PDK1 (Ser241), anti-phospho PDK1 (Tyr373/376), anti-phospho GSK-3β, anti-phospho mTOR (Ser2448), anti-mTOR, anti-βIII tubulin (Promega).
To determine the effect of selenate on the phosphorylation of proteins involved in the PI3K/Akt signaling cascade, 5×10^5 PC-3 cells were allowed to attach for 10 hours. […] Cells were lysed in ELB (250 mM NaCl, 50 mM HEPES pH 7.0, 5 mM EDTA, 0.5 mM DTT, 0.2% TX100, 20 mM sodium fluoride, 2 mM sodium pervanadate, Complete Protease Inhibitor Cocktail (Roche)). Lysates were centrifuged for 15 minutes at 4° C. Protein concentration was determined using the BCA system (Sigma) and equal amounts of protein were loaded into each lane of a SDS-polyacrylamide gel. The proteins were transferred onto PVDF (Millipore) membranes and detected with anti-mouse or anti-rabbit secondary antibodies couples to horseradish peroxidase (HRP) and chemiluminescence using the SuperSignal West Dura (Pierce). Membranes were stripped using the Restore Western Blot Stripping Buffer (Pierce).

[5] = system: prostate tumor PC-3 cells
Method: 1×10^6 prostate tumor PC-3 cells were injected into the prostate of nude mice. […] Paclitaxel at 10 mg/kg was administered intraperitoneally once per week in 10% Cremophor EL/25% ethanol/65% PBS solution to those animals receiving paclitaxel. 10 animals were used per group. After 5 weeks post injection, animals were sacrificed, the prostates removed, the appendages dissected off and the tumors weighed. The retroperitoneum was explored for lymphadenopathy and lymph nodes greater than 0.5 mm diameter excised. The tumors were then step sectioned at 50 micron steps and tumor volumes calculated from the digitized images using the standard volumetric formula […].

[6] = system: human prostate cancer PC-3 cells; assay: Cell toxicity by Trypan Blue Exclusion, selenate versus selenite; conditions: 5 μM or 50 μM, 24 to 96 hours
Method: 5×10^3 human prostate cancer PC-3 cells were seeded in a 24-well dish and 8 hours later were treated with either 5 μM or 50 μM of selenate or selenite. The dose range of 5 μM or 50 μM is equivalent to 0.1 mg/kg to 1.25 mg/kg. Cells were harvested at 24, 48, 72 and 96 hours following the addition of selenate or selenite and the percentage of viable cells as assessed by Trypan Blue staining was determined.
All cells in the tissue culture wells were then harvested sequentially at periods between 24 and 96 hours following addition of the treatments. The percentage of viable cells were then determined using the Trypan Blue exclusion assay.

[7] = system: human prostate tumor cells; conditions: in comparison to organic selenomethionine, methylselenocysteine or selenized yeast; cited from earlier work

Compound: O=[Se](=O)(O)O [sodium selenate]
- number of retroperitoneal lymph nodes (PC-3 cells [1]; 5 ppm in drinking water, lymph nodes greater than 0.5 mm): significantly decreased
- BrdU incorporation in prostate tumors (PC-3 cells [1]; 5 ppm in drinking water): significantly impaired
- apoptosis (Tunel assay) in prostate tumors (PC-3 cells [1]; 5 ppm in drinking water): not significantly different
- tumor volume difference (PC-3 cells [1]; 5 ppm in drinking water): just failed to reach significance
- primary tumor growth assessed by the prostate weight index (PC-3 cells [1]; 5 ppm selenium as sodium selenate in drinking water): significantly inhibit
- PC-3 cell number (PC-3 cells [2]; doses of 0.01 to 0.1 mM): rate of increase in cell number was impeded
- PC-3 cell number (PC-3 cells [2]; doses of 0.25 and 0.5 mM): all increases in cell number were blocked
- PC-3 cell proliferation (MTT proliferative index) (PC-3 cells [3]; 0.25 and 0.5 mM, 72 hour): markedly reduced
- proliferative inhibition with added LY294002 (PC-3 cells [3]; high dose sodium selenate plus LY294002, 72 hours): not enhanced by LY294002
- PC-3 cell number (MTT) (PC-3 cells [3]; lowest dose 0.01 mM): slight, but reproducible boost in cell number
- p27KIP1 total protein levels, inorganic versus organic selenium ([4]; 0.5 mM, compared to control (0 hours), FIG. 3C): markedly boosted
- expression levels of cyclin D1 ([4]; 0.5 mM, from the 14 hour time period): dropped significantly
- cdk4 levels ([4]; 0.5 mM, out to 24 hours): peaked at 6 hours and declined in time dependent manner to 24 hours
- p21CIP1 levels ([4]; 0.5 mM, peaking at 6 hours): marked increase
- p27KIP1 levels ([4]; 0.5 mM, time-dependent till 24 hours): increased
- cdk6 levels ([4]; high dose (0.5 mM)): remained relatively unchanged
- prostate tumor weights ([5]; 5 ppm selenium in drinking water and/or paclitaxel 10 mg/kg intraperitoneally once per week, 5 weeks, control received Cremophor/ethanol carrier): not reduced compared to the control
- microvessel density in the tumors ([5]; selenate alone, 5 ppm in drinking water): greater effect on reducing microvessel density in the tumors than on tumor volumes
- cytotoxic effect (Trypan Blue exclusion) [6]: not cytotoxic
- percentages of viable cells [6]: equivalent to the control untreated samples
- tumor progression [7]: significantly reduces tumor progression
